In patent publication US6716428B1, “Antigenic modification of polypeptides” (The Ohio State University Research Foundation, priority 1999, dated 2004):
Where two headings read alike, the source gives them in different places. Ends that are not written are not given here.

What was measured:
[1] = system: peptide used in the conjugate (Structure (II), (XII), (XIV), (X)); assay: Antibody level to the peptide of the conjugate in immunized mice (^125I antigen, double antibody technique); assay type: in vivo; settings: 52 days
HCG [2] = assay: Antibody level to HCG in immunized mice (^125I antigen, double antibody technique); assay type: in vivo; settings: 52 days
HCG [3] = assay type: in vivo, rabbit
female baboons = assay: Fertility rates (matings and pregnancies) of immunized female baboons; assay type: in vivo, baboon; settings: female baboons
Friends' Leukemia Virus = assay: Survival of immunized SJL/J mice inoculated with Friends' Leukemia Virus; assay type: in vivo; parameters: concentration or dose not given beside the values
From the text: The mice used in this experiment were six-week old female mice of SJL/J strain. A test group and a control group, each containing approximately 20 mice were selected at random and were immunized in the same manner as in Example XXXVI above, the test animals receiving the vaccine containing the peptide/diphtheria toxoid conjugate and the control group receiving the vaccine containing only the vehicle. However, in this experiment a different immunization schedule was followed: the original immunization was followed by booster immunizations 4, 9, 20 and 29 weeks later. Six weeks after the first immunization (i.e. two weeks after the second immunization) each mouse was injected with approximately 1 million Friends' Leukemia Virus and the mice were observed daily for deaths.

[4] = system: Ridgeway Osteogenic Sarcoma; assay: Growth of Ridgeway Osteogenic Sarcoma in immunized AKR mice; assay type: in vivo
From the text: Sixty mice of the AKR strain were divided at random into a test group and a control group each comprising 30 mice. The test group were then immunized in the same manner as in Examples XXXVI and XXXVII with a vaccine comprising the same conjugate as in those Examples dissolved in Freund's Complete Adjuvant, while the control group simply received the Freund's Adjuvant. Booster Immunizations were given to each group three and seven weeks after the first immunization. […] In the mice in which the tumor survived, tumor volume measurements were made 22, 26, 29, 31, 33, 38, 40 and 43 days after innoculation with the Sarcoma. […] Nevertheless, the results in Table 27 do show a significant reduction in the rate of tumor growth in the conjugate-immunized mice.

CC(=O)N[C@H]1C(O)O[C@H](CO)[C@@H](O)[C@@H]1OCC(=O)N[C@@H](C)C(=O)N[C@H](CCC(=O)O)C(N)=O (stereo partly shown) [CGP 11637, NAc-nor Mur-L. Ala-D. iso Gln]
Antibody level to Structure (XII) [1]: 70.9 ng/mL | Antibody level to Structure (XII) ([1]; C3H/He mice, same conjugate): 84.0 ng/mL | Antibody level to Structure (XII) ([1]; DBA/1 mice, same conjugate): 42.5 ng/mL | Antibody level to Structure (XII) ([1]; SJL mice, same conjugate): 60.1 ng/mL | Antibody level to CG (HCG [2]): 18.3 ng/mL | Antibody level to CG (HCG [2]; C3H/He mice, same conjugate): 21.5 ng/mL | Antibody level to CG (HCG [2]; DBA mice, same conjugate): 10.6 ng/mL | Antibody level to CG (HCG [2]; SJL mice, same conjugate): 13.8 ng/mL | Mean Antibody Level-^125I-HCG (HCG [3]; as E193, 4 weeks): 177.8 M/L × 10^10 | Mean Antibody Level-^125I-HCG (HCG [3]; as E193, 5 weeks): 211.9 M/L × 10^10 | Mean Antibody Level-^125I-HCG (HCG [3]; as E193, 6 weeks): 297.2 M/L × 10^10 | Mean Antibody Level-^125I-HCG (HCG [3]; as E193, 7 weeks): 381.2 M/L × 10^10 | Mean Antibody Level-^125I-HCG (HCG [3]; as E193, 8 weeks): 418.6 M/L × 10^10 | Mean Antibody Level-^125I-HCG (HCG [3]; as E193, 9 weeks): 480.0 M/L × 10^10 | Mean Antibody Level-^125I-HCG (HCG [3]; as E193, 10 weeks): 708.6 M/L × 10^10 | Mean Antibody Level-^125I-HCG (HCG [3]; as E193, 11 weeks): 628.5 M/L × 10^10 | Mean Antibody Level-^125I-HCG (HCG [3]; as E193, 12 weeks): 398.5 M/L × 10^10 | HCG antibody levels compared with rabbits receiving adjuvants CGP 16940 and 12908 (HCG [3]; in vivo): significantly greater | Mean Antibody Level-^125I-HCG (HCG [3]; in vivo): 16.3 M/L × 10^10

CCC(NC(=O)COC1C(O)C(CO)OC(O)C1NC(C)=O)C(=O)NC(CCC(=O)O)C(N)=O [CGP 14767, NAc-nor-Mur-L-Abu-D.isoGln]
Antibody level to Structure (XII) [1]: 53.0 ng/mL | Antibody level to Structure (XII) ([1]; C3H/He mice, same conjugate): 74.9 ng/mL | Antibody level to Structure (XII) ([1]; DBA/1 mice, same conjugate): 22.2 ng/mL | Antibody level to Structure (XII) ([1]; SJL mice, same conjugate): 91.6 ng/mL | Antibody level to CG (HCG [2]): 21.0 ng/mL | Antibody level to CG (HCG [2]; C3H/He mice, same conjugate): 21.4 ng/mL | Antibody level to CG (HCG [2]; DBA mice, same conjugate): 11.1 ng/mL | Antibody level to CG (HCG [2]; SJL mice, same conjugate): 5.4 ng/mL

CCCCCCCCCCCCCCCCCC(=O)OCC1OC(O)C(NC(C)=O)C(OC(C)C(=O)NC(C)C(=O)NC(CCC(=O)O)C(N)=O)C1O (stereo not shown) [CGP 18177, NAc-Mur (6-0-stearoyl)-LAla-D.isoGln]
Mean Antibody Level-^125I-HCG (HCG [3]; as E193, 4 weeks): 215.1 M/L × 10^10 | Mean Antibody Level-^125I-HCG (HCG [3]; as E193, 5 weeks): 204.6 M/L × 10^10 | Mean Antibody Level-^125I-HCG (HCG [3]; as E193, 6 weeks): 218.2 M/L × 10^10 | Mean Antibody Level-^125I-HCG (HCG [3]; as E193, 7 weeks): 441.9 M/L × 10^10 | Mean Antibody Level-^125I-HCG (HCG [3]; as E193, 8 weeks): 544.9 M/L × 10^10 | Mean Antibody Level-^125I-HCG (HCG [3]; as E193, 9 weeks): 456.2 M/L × 10^10 | Mean Antibody Level-^125I-HCG (HCG [3]; as E193, 10 weeks): 631.0 M/L × 10^10 | Mean Antibody Level-^125I-HCG (HCG [3]; as E193, 11 weeks): 584.0 M/L × 10^10 | Mean Antibody Level-^125I-HCG (HCG [3]; as E193, 12 weeks): 270.0 M/L × 10^10 | Mean Antibody Level-^125I-HCG (HCG [3]; in vivo): 19.9 M/L × 10^10

CCCCCCCCCCCCCCCCCC(=O)OCC1OC(O)C(NC(C)=O)C(OCC(=O)NC(C)C(=O)NC(CCC(=O)O)C(N)=O)C1O (stereo not shown) [CGP 18741, NAc-ner-Mur (6-0-stearoyl)-L.Ala-D.isoGln]
Mean Antibody Level-^125I-HCG (HCG [3]; as E193, 4 weeks): 9.8 M/L × 10^10 | Mean Antibody Level-^125I-HCG (HCG [3]; as E193, 5 weeks): 6.2 M/L × 10^10 | Mean Antibody Level-^125I-HCG (HCG [3]; as E193, 6 weeks): 8.9 M/L × 10^10 | Mean Antibody Level-^125I-HCG (HCG [3]; as E193, 7 weeks): 81.1 M/L × 10^10 | Mean Antibody Level-^125I-HCG (HCG [3]; as E193, 8 weeks): 75.4 M/L × 10^10 | Mean Antibody Level-^125I-HCG (HCG [3]; as E193, 9 weeks): 74.9 M/L × 10^10 | Mean Antibody Level-^125I-HCG (HCG [3]; as E193, 10 weeks): 121.8 M/L × 10^10 | Mean Antibody Level-^125I-HCG (HCG [3]; as E193, 11 weeks): 156.8 M/L × 10^10 | Mean Antibody Level-^125I-HCG (HCG [3]; as E193, 12 weeks): 97.6 M/L × 10^10 | Mean Antibody Level-^125I-HCG (HCG [3]; in vivo): 5.9 M/L × 10^10

Conjugate (TCDDPRFQDSSSSKAPPPSLPSPSRLPGPSDTPILPQ; also: conjugated to foreign carrier; listed as Homo sapiens)
Fertility Rate (%) (female baboons; mating cycle 1): 0% | No. Pregnant (female baboons; mating cycle 1): 0 | Fertility Rate (%) (female baboons; mating cycle 2): 6.7% | No. Pregnant (female baboons; mating cycle 2): 1 | Fertility Rate (%) (female baboons; mating cycle 3): 7.1% | No. Pregnant (female baboons; mating cycle 3): 1 | Fertility Rate (%) (female baboons; totals of mating cycles 1-3): 4.6% | No. Pregnant (female baboons; totals of mating cycles 1-3): 2 | Survival Rate - % (Friends' Leukemia Virus; 0 days after inoculation with Friends' Leukemia Virus): 100.0% | Survival Rate - % (Friends' Leukemia Virus; 22 days after inoculation): 100.0% | Survival Rate - % (Friends' Leukemia Virus; 29 days after inoculation): 100.0% | Survival Rate - % (Friends' Leukemia Virus; 98 days after inoculation (day of booster immunization)): 100.0% | Survival Rate - % (Friends' Leukemia Virus; 160 days after inoculation): 100.0% | Survival Rate - % (Friends' Leukemia Virus; 163 days after inoculation (day of booster immunization)): 100.0% | Survival Rate - % (Friends' Leukemia Virus; 166 days after inoculation): 100.0% | Survival Rate - % (Friends' Leukemia Virus; 175 days after inoculation): 100.0% | Survival Rate - % (Friends' Leukemia Virus; 180 days after inoculation): 100.0% | Mean Tumor Volume - cm^3 ([4]; day 22 of tumor growth): 0.65 cm^3 | Mean Tumor Volume - cm^3 ([4]; day 26 of tumor growth): 0.68 cm^3 | Mean Tumor Volume - cm^3 ([4]; day 29 of tumor growth): 1.20 cm^3 | Mean Tumor Volume - cm^3 ([4]; day 31 of tumor growth): 2.24 cm^3 | Mean Tumor Volume - cm^3 ([4]; day 33 of tumor growth): 3.04 cm^3 | Mean Tumor Volume - cm^3 ([4]; day 36 of tumor growth): 3.14 cm^3 | Mean Tumor Volume - cm^3 ([4]; day 38 of tumor growth): 4.40 cm^3 | Mean Tumor Volume - cm^3 ([4]; day 40 of tumor growth): 5.54 cm^3 | Mean Tumor Volume - cm^3 ([4]; day 43 of tumor growth): 5.00 cm^3
